Measurements taken from publication PMC11502334, “Fungal glyceraldehyde 3-phosphate dehydrogenase GpdC maintains glycolytic mechanism against reactive nitrogen stress-induced damage” (Frontiers in Microbiology, 2024).

Legend:
rGpdC (GpdC) = biological target: T1, rGpdC (GpdC) (Aspergillus nidulans, UniProt Q5BA47); experiment: residual GAPDH activity after preincubation; biotin-switch assay; format: biochemical; settings: covalent (S-nitrosation of thiols); 0–1 mM, 1 h, 25°C, pH 7.5; activity measured with NADP+
T1 construct: gene ANIA_02583; recombinant from synthetic E. coli codon-optimized gene, vector pET-21a (Nde I/Hind III), expressed in E. coli BL21 (DE3), HisTrap purified
T1 sequence (Q5BA47 1-354): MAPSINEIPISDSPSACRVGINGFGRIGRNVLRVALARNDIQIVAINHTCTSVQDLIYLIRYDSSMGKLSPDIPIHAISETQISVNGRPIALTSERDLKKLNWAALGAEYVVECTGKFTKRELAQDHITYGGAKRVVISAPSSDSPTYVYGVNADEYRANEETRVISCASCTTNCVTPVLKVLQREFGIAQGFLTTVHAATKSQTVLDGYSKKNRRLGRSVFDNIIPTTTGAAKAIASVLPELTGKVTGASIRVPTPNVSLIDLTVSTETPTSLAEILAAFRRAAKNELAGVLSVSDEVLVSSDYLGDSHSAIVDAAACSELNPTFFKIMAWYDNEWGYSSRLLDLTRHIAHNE

rGpdA (GpdA) = biological target: T2, rGpdA (GpdA) (Aspergillus nidulans, UniProt P20445); experiment: as above; format: biochemical; settings: covalent (S-nitrosation of thiols); 0–1 mM, 1 h, 25°C, pH 7.5; activity measured with NAD+
T2 construct: recombinant from cDNA, vector pET-21a, expressed in E. coli BL21 (DE3), HisTrap purified
T2 sequence (P20445 whole entry): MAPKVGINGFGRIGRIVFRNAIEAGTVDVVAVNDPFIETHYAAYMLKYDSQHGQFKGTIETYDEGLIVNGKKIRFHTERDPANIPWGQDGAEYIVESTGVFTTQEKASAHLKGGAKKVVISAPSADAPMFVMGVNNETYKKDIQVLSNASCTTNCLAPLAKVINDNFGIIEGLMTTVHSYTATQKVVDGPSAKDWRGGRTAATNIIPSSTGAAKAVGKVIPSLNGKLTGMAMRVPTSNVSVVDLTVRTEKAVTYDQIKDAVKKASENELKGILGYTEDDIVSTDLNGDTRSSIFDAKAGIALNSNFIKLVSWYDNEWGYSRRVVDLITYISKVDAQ

Structure (SMILES): N[C@@H](CCC(=O)N[C@@H](CSN=O)C(=O)NCC(=O)O)C(=O)O [GSNO]
- residual GAPDH activity after preincubation; biotin-switch assay (rGpdC (GpdC)): GSNO modified the thiol residues of rGpdA and rGpdC to S-nitrosothiol and impaired enzyme activity
- residual GAPDH activity after preincubation; biotin-switch assay (rGpdA (GpdA)): GSNO modified the thiol residues of rGpdA and rGpdC to S-nitrosothiol and impaired enzyme activity
